Measurements: US20240000791A1, “Methods of Using 4-Amino-N-[4-(Methoxymethyl)Phenyl]-7-(1-Methylcyclopropyl)-6-(3-Morpholinoprop-1-YN-1-YL)-7H-Pyrrolo[2,3-D]Pyrimidine-5-Carboxamide for the Treatment of Tumors” (Helsinn Healthcare SA, priority 2020, published 2024)
Read-outs that look alike come from different tables or passages of the source.

Tests used:
FLT4 = FLT4 (Homo sapiens, UniProt P35916); assay: Kinase inhibition; assay type: biochemical
PDGFRα = PDGFRα (Homo sapiens, UniProt P16234); assay: Kinase inhibition; assay type: biochemical
Sequence of PDGFRα (P16234 24-1089): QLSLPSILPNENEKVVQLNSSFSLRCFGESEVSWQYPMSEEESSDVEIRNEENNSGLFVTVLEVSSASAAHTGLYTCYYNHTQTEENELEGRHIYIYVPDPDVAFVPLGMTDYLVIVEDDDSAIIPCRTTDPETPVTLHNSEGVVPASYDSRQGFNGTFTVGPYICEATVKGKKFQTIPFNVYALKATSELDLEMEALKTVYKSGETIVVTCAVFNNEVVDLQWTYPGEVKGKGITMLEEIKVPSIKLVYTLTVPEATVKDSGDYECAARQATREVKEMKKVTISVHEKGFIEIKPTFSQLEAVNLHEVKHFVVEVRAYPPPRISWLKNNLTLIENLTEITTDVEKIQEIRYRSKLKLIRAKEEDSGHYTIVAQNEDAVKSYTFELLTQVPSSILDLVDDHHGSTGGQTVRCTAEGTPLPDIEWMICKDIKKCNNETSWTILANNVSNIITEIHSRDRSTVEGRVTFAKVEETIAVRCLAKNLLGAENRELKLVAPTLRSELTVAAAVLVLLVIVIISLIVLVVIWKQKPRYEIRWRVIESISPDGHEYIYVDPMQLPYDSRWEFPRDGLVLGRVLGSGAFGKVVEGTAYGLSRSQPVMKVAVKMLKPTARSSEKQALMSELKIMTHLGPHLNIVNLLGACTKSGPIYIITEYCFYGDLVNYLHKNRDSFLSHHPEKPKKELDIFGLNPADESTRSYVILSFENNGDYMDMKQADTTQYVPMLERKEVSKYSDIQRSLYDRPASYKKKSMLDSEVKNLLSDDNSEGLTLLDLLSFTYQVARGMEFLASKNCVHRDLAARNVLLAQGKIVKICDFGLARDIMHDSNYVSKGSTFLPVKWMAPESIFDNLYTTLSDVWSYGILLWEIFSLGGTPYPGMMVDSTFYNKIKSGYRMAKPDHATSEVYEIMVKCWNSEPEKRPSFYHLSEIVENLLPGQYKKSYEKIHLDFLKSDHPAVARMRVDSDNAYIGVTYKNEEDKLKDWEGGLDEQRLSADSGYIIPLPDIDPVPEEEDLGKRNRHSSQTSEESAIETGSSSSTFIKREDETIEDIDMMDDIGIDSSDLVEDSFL

PDGFRβ = PDGFRβ (Homo sapiens, UniProt P09619); assay: Kinase inhibition; assay type: biochemical
Sequence of PDGFRβ (P09619 33-1106): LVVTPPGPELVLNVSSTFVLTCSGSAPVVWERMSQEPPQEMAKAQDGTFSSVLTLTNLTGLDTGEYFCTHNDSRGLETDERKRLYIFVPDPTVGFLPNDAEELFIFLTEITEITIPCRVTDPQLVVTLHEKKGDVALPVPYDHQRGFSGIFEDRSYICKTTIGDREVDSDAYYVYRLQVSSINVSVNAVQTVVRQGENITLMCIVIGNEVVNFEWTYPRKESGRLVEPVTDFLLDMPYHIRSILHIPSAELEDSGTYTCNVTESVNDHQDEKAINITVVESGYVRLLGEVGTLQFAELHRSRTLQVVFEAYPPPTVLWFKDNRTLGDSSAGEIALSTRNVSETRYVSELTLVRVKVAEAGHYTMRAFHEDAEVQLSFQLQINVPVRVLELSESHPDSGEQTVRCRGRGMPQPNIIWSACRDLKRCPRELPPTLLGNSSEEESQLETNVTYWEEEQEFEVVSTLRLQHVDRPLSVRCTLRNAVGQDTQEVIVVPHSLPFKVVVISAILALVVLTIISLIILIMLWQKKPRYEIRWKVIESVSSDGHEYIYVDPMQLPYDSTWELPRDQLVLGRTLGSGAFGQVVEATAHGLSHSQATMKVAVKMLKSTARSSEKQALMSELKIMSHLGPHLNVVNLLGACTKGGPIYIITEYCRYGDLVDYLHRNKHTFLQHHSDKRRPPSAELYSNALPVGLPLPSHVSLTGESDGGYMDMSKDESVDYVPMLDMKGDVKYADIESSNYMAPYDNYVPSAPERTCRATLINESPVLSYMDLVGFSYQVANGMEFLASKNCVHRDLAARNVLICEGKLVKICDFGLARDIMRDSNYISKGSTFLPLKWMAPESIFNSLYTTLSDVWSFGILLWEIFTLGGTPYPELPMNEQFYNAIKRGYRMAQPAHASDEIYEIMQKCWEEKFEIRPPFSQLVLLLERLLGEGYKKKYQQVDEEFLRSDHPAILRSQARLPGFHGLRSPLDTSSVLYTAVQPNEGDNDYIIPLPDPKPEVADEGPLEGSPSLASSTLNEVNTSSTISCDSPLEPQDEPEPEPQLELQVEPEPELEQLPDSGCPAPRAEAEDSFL

FGFR1 = FGFR1 (Homo sapiens, UniProt P11362); assay: Kinase inhibition; assay type: biochemical
Sequence of FGFR1 (P11362 22-822): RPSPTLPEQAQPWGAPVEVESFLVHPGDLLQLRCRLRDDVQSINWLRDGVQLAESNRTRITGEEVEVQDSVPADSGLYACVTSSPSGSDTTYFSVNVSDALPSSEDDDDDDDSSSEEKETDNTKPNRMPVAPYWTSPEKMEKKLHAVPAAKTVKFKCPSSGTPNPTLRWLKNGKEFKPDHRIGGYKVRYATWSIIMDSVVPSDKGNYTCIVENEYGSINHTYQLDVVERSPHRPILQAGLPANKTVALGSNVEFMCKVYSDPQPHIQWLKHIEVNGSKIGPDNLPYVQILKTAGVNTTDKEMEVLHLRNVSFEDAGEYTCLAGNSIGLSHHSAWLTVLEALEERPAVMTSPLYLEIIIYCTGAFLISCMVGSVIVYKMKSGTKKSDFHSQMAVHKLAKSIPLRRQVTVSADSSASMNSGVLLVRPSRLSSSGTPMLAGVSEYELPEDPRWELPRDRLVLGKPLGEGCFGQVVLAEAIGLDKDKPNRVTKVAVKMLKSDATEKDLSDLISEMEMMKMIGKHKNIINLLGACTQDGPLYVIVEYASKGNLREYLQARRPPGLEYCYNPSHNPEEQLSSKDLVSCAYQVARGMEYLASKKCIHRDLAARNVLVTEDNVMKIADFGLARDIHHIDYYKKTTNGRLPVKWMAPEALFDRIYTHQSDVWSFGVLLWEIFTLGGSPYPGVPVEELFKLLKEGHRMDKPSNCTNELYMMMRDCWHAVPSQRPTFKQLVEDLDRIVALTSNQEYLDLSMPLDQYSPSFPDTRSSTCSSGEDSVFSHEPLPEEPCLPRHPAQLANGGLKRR

FGFR2 = FGFR2 (Homo sapiens, UniProt P21802); assay: Kinase inhibition; assay type: biochemical
FGFR3 = FGFR3 (Homo sapiens, UniProt P22607); assay: Kinase inhibition; assay type: biochemical
DDR1 = DDR1 (Homo sapiens, UniProt Q08345); assay: Kinase inhibition; assay type: biochemical
Sequence of DDR1 (Q08345 19-913): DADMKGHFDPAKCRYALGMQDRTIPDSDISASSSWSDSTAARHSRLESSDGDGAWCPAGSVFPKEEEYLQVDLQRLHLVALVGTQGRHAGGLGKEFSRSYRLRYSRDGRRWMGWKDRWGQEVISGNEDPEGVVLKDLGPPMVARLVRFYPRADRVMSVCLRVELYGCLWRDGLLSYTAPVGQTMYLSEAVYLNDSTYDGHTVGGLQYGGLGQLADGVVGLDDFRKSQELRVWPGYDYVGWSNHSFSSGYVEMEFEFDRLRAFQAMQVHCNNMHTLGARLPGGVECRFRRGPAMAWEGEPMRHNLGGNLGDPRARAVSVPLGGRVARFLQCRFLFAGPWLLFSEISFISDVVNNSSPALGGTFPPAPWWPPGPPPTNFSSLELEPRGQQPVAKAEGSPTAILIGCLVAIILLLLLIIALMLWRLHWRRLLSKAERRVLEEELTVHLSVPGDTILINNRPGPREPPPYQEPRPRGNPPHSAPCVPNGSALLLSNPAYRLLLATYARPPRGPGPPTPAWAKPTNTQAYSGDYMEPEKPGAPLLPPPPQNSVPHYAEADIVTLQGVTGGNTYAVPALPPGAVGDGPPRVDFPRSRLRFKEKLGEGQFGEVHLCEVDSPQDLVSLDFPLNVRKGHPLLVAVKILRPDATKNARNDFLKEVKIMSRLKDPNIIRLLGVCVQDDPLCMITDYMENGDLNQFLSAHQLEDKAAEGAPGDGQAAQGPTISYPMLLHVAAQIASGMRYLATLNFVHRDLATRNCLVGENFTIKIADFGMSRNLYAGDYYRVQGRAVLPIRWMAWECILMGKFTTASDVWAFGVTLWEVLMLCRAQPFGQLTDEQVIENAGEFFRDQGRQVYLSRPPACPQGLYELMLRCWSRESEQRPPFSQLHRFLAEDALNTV

DDR2 = target: T1, DDR2 (Homo sapiens, UniProt Q16832); assay: Kinase inhibition; assay type: biochemical
T1 sequence (Q16832 22-855): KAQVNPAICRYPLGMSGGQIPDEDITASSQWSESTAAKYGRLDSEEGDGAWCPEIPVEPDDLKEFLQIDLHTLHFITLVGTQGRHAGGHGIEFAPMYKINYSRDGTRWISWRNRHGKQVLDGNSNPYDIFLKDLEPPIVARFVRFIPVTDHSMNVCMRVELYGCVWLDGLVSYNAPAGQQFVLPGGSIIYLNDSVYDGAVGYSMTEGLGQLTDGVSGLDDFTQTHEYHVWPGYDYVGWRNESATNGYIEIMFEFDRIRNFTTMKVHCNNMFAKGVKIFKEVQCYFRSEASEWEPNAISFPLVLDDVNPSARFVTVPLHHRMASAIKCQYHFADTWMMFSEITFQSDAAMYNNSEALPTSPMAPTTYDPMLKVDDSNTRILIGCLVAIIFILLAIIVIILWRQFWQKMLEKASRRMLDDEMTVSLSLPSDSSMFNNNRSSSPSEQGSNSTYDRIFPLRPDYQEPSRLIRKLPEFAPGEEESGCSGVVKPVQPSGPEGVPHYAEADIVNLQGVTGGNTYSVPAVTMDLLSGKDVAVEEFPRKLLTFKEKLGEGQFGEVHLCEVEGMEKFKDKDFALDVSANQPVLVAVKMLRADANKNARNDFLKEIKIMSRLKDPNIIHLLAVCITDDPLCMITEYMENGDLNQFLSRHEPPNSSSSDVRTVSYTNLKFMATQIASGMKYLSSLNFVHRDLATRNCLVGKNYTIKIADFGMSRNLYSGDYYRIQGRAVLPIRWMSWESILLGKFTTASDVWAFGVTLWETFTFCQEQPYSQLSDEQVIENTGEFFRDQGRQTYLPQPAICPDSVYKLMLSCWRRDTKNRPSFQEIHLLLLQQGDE

JAK1 = JAK1 (Homo sapiens, UniProt P23458); assay: Kinase inhibition; assay type: biochemical
JAK2 = JAK2 (Homo sapiens, UniProt O60674); assay: Kinase inhibition; assay type: biochemical
Sequence of JAK2 (O60674 whole entry): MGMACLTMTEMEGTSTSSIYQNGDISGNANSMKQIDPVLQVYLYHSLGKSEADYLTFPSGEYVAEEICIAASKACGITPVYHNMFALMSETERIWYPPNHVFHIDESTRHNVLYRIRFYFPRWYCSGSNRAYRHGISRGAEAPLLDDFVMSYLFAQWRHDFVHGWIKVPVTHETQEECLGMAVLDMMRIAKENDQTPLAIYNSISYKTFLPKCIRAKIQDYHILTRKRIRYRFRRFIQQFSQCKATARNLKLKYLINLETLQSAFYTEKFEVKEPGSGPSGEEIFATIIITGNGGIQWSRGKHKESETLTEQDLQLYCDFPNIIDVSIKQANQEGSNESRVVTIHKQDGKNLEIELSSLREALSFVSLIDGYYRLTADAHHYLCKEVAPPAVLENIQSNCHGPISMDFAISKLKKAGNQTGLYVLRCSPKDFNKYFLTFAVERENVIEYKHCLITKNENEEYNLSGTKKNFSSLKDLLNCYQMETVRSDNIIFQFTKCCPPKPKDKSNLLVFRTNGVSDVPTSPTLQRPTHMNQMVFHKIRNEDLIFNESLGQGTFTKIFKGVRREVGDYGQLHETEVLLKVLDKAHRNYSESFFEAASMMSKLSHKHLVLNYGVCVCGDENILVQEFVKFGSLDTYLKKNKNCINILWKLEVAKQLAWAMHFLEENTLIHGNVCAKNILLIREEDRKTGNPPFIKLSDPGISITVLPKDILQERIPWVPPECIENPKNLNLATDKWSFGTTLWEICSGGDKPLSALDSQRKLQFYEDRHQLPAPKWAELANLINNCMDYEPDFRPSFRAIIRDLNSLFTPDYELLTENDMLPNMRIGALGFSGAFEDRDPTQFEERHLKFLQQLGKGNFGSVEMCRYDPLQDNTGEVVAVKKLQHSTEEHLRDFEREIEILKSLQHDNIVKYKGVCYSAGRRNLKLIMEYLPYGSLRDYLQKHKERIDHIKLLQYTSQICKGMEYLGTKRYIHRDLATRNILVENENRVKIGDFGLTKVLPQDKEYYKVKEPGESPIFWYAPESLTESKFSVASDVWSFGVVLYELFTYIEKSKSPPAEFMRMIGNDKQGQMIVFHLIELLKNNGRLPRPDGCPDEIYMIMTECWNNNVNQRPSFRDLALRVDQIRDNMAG

JAK3 = target: T2, JAK3 (Homo sapiens, UniProt P52333); assay: Kinase inhibition; assay type: biochemical
T2 sequence (P52333 1-1124): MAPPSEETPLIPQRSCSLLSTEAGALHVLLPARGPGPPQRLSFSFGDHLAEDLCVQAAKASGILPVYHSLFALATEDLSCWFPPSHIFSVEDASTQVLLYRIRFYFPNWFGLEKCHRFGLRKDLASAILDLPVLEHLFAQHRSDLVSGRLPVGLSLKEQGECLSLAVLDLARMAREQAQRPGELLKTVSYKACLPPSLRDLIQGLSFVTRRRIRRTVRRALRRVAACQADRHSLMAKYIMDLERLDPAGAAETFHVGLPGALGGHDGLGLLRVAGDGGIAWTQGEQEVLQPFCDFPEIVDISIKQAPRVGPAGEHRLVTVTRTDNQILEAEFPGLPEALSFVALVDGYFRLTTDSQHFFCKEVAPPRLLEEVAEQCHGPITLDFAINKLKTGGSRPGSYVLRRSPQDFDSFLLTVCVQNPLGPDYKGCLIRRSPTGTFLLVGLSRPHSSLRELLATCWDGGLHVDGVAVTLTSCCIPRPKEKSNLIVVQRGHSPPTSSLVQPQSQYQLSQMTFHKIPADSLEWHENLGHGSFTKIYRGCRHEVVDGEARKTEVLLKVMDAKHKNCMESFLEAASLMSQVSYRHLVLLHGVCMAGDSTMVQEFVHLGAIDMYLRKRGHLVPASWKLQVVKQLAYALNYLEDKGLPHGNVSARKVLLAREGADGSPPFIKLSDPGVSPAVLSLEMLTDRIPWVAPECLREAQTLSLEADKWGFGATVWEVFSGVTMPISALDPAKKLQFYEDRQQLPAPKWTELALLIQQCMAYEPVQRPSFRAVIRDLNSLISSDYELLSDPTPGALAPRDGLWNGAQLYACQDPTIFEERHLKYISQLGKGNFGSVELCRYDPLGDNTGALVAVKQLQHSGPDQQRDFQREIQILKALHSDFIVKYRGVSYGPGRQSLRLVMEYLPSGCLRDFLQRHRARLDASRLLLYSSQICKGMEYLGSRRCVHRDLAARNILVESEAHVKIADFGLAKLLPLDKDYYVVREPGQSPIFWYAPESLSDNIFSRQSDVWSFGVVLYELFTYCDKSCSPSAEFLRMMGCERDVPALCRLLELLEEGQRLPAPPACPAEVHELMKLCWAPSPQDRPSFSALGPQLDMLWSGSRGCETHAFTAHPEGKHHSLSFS

Ba/F3 KIF5B-RET V804M = assay: Cell viability CellTiter-Glo 2.0; assay type: cell-based; conditions: Mus musculus, read-out: GI50 values
Ba/F3 KIF5B-RET G810S = assay: Cell viability CellTiter-Glo 2.0; assay type: cell-based; conditions: Mus musculus, read-out: GI50 values
[1] = test system: Ba/F3 KIF5B-RET^G810R cells; assay: Ba/F3 KIF5B-RET G810R subcutaneous tumor model, first study; assay type: in vivo, mouse; conditions: 14 days; for tumor regrowth at the end of the study: 30 mg/kg bid oral
[2] = read-out: IC50 kinase inhibition, FLT4
[3] = read-out: IC50 kinase inhibition, PDGFRα
[4] = read-out: IC50 kinase inhibition, PDGFRβ
[5] = read-out: IC50 kinase inhibition, FGFR1
[6] = read-out: IC50 kinase inhibition, FGFR2
[7] = read-out: IC50 kinase inhibition, FGFR3
[8] = read-out: IC50 kinase inhibition, DDR1
[9] = read-out: IC50 kinase inhibition, DDR2
[10] = read-out: IC50 kinase inhibition, JAK1
[11] = read-out: IC50 kinase inhibition, JAK2
[12] = read-out: IC50 kinase inhibition, JAK3

SMILES	IC50 (FLT4; [2]) [nM]	IC50 (PDGFRα; [3]) [nM]	IC50 (PDGFRβ; [4]) [nM]	IC50 (FGFR1; [5]) [nM]	IC50 (FGFR2; [6]) [nM]	IC50 (FGFR3; [7]) [nM]	IC50 (DDR1; [8]) [nM]	IC50 (DDR2; [9]) [nM]	IC50 (JAK1; [10]) [nM]	IC50 (JAK2; [11]) [nM]	IC50 (JAK3; [12]) [nM]	tumor regrowth at the end of the study [1]	GI50 (Ba/F3 KIF5B-RET V804M; BaF3, 72 h) [nM]	GI50 (Ba/F3 KIF5B-RET G810S; BaF3, 72 h) [nM]	further results
CO[C@]1(C(=O)N[C@@H](C)c2ccc(-n3cc(F)cn3)nc2)CC[C@H](c2nc(C)cc(Nc3cc(C)[nH]n3)n2)CC1 [BLU-667, pralsetinib]	6.3	12	7.7	15	35	58	7.1	7.7	2.6	1.1	6.1	trend to tumor regrowth	–	–	GI50 (Ba/F3 KIF5B-RET V804M; BaF3, Ba/F3 KIF5B-RET V804M, 72 hours, mean±SD of three experiments): 8.6 ± 0.58 nM; GI50 (Ba/F3 KIF5B-RET G810S; BaF3, Ba/F3 KIF5B-RET G810S, 72 hours, mean±SD of three experiments): 50.6 ± 31.4 nM
COCc1ccc(NC(=O)c2c(C#CCN3CCOCC3)n(C3(C)CC3)c3ncnc(N)c23)cc1 [HM06/TAS0953, 4-amino-N-(4-(methoxymethyl)phenyl)-7-(1-methylcyclopropyl)-6-(3-morpholinoprop-1-yn-1-yl)-7H-pyrrolo[2,3-d]pyrimidine-5-carboxamide]	–	–	–	–	–	–	–	–	–	–	–	did not show tumor regrowth	39.7 ± 4.6	11.9 ± 3.6	IC50 (FLT4): 150 nM; IC50 (PDGFRα): 735 nM; IC50 (PDGFRβ): 2760 nM; IC50 (FGFR1): 2720 nM; IC50 (FGFR2): 1850 nM; IC50 (FGFR3): 2150 nM; IC50 (DDR1): 1190 nM; IC50 (DDR2): > 3000 nM; IC50 (JAK1): > 3000 nM; IC50 (JAK2): > 3000 nM; IC50 (JAK3): > 3000 nM; tumor volume at the end of the study vs control ([1]; 10 mg/kg bid oral): significantly decreased tumor volume
COc1ccc(CN2C3CC2CN(c2ccc(-c4cc(OCC(C)(C)O)cn5ncc(C#N)c45)cn2)C3)cn1 [LOXO-292, selpercatinib]	4	44	67	64	34	51	103	417	> 3000	> 3000	2840	trend to tumor regrowth	33.3 ± 2.9	166 ± 20	–
